These results are taken from ChEMBL document CHEMBL5465560, “Selectivity Literature for EUbOPEN Chemogenomic Library” (2024).

Assay [1] concerns the target Mitogen-activated protein kinase 1 (Homo sapiens, UniProt P28482). Briefly: Selectivity interaction (KinomeScan (DiscoverX)) EUB0000655a MAPK1. To be noted: at 10 µM.
The test system of assay [2] is T1, Receptor-type tyrosine-protein kinase FLT3 (Homo sapiens), P36888 [K663Q].
T1 sequence (whole entry): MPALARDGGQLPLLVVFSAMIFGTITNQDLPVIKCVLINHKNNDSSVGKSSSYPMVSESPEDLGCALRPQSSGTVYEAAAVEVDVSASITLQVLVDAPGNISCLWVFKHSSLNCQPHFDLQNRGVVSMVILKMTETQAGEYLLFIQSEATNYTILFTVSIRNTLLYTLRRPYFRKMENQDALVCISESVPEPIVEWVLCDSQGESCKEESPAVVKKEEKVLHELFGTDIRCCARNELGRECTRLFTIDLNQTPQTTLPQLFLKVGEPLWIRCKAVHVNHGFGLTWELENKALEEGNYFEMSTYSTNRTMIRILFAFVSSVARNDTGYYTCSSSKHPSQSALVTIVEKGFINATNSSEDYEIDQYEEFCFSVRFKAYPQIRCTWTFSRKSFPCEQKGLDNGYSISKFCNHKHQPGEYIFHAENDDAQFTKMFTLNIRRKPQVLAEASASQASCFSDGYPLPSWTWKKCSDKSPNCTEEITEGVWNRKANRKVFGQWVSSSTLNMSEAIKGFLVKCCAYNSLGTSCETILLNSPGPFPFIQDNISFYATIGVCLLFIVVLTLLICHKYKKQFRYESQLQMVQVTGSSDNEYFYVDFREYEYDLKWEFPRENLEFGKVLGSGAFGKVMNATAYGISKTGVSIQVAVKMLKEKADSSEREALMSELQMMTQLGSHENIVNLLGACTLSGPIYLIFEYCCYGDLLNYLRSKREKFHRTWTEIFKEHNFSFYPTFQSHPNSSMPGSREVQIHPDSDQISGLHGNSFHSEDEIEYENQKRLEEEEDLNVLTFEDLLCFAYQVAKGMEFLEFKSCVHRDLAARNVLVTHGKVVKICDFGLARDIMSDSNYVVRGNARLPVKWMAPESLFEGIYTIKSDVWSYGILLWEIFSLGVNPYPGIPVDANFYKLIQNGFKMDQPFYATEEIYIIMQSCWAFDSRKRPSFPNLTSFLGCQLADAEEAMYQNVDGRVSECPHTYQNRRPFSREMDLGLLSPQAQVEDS
Briefly: (§1) Selectivity interaction (KinomeScan (DiscoverX)) EUB0000655a FLT3. To be noted: at 10 µM.

Assay [3] has as its system Receptor-type tyrosine-protein kinase FLT3 (Homo sapiens), P36888 [UNDEFINED MUTATION]. The description is as §1. To be noted: at 10 µM.
Assay [4] concerns T2, Receptor-type tyrosine-protein kinase FLT3 (Homo sapiens), P36888 [N841I].
T2 sequence (whole entry): T1 sequence (whole entry) with Q663K, N841I
Described as §1. To be noted: at 10 µM.

Assay [5] has as its target Serine/threonine-protein kinase 3 (Homo sapiens, UniProt Q13188). Briefly: Selectivity interaction (ADP-Glo kinase assay) EUB0001619a STK3.
Assay [6] concerns the target DNA (cytosine-5)-methyltransferase 3B (Homo sapiens) (UniProt Q9UBC3). Briefly: Selectivity interaction (PWWP, WD40, and Tudor domain panel (DSLS measurements, literature)) EUB0000270b DNMT3B.
Assay [7] concerns the target Myosin-IIIa (Homo sapiens) (UniProt Q8NEV4). Briefly: Selectivity interaction (KinomeScan (DiscoverX)) EUB0000045b MYO3A.
Assay [8] deals with T3, cGMP-dependent protein kinase 1 (Homo sapiens) (UniProt Q13976).
T3 sequence (whole entry): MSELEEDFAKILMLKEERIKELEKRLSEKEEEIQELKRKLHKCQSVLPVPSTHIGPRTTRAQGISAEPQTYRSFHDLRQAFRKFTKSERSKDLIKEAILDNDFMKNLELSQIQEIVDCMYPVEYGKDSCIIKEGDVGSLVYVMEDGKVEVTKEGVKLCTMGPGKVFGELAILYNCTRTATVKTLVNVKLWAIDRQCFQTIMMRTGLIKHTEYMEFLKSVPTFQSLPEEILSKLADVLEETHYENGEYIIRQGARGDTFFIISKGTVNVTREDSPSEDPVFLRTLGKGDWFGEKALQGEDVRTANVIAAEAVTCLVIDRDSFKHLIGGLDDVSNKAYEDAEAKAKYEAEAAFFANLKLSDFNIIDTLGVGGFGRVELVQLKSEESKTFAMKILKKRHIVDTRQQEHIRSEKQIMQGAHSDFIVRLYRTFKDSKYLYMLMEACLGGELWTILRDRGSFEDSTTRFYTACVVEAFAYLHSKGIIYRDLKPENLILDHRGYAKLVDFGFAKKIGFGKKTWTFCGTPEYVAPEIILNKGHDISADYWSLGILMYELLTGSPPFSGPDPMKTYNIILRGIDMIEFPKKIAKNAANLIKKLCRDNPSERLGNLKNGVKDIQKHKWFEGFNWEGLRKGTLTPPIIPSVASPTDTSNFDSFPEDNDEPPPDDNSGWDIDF
Briefly: Selectivity interaction (Upstate Kinase Profiler service (Millipore)) EUB0000056c PRKG1. Particulars: at 1 µM.

Each structure is given as a SMILES string. Numbering of substitutions follows the chain as printed.

Chain of Myosin-IIIa (Homo sapiens) (Q8NEV4 whole entry): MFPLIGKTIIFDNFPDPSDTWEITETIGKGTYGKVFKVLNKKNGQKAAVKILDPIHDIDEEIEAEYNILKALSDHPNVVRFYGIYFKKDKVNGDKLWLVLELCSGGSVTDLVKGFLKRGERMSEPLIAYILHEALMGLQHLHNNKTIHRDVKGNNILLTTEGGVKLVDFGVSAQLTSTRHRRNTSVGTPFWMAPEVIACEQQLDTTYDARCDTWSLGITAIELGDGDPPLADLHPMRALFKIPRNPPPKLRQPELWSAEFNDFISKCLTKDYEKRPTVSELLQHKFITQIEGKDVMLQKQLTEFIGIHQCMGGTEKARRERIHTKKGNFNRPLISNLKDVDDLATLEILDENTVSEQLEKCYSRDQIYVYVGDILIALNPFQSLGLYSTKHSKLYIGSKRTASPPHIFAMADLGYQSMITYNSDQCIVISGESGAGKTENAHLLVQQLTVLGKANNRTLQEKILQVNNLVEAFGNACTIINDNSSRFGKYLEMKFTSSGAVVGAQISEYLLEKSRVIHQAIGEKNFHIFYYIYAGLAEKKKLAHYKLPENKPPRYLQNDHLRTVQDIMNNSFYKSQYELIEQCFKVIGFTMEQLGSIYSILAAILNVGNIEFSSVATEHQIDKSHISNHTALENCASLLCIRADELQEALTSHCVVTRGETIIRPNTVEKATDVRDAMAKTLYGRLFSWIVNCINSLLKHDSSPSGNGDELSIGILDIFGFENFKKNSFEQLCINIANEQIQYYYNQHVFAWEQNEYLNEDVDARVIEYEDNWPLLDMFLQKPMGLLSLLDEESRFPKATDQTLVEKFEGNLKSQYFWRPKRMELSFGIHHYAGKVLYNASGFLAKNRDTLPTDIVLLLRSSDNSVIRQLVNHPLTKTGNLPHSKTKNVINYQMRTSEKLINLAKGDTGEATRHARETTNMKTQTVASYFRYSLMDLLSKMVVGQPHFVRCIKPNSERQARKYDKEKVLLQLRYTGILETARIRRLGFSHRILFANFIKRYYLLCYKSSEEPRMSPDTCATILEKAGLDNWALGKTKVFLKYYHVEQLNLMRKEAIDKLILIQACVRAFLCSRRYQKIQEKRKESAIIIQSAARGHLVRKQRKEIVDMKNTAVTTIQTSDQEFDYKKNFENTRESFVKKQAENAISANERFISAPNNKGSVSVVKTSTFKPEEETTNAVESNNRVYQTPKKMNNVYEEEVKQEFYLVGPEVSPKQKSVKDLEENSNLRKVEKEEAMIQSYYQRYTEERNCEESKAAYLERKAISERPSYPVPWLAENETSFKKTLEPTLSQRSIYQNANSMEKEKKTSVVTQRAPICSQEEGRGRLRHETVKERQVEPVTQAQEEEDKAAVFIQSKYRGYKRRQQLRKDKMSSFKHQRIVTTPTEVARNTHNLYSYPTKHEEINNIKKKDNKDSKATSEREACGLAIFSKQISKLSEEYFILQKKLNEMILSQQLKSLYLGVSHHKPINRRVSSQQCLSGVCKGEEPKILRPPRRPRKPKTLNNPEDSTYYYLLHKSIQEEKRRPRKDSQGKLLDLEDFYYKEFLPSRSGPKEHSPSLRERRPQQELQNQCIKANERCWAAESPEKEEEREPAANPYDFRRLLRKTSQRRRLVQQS
Chain of Mitogen-activated protein kinase 1 (P28482 whole entry): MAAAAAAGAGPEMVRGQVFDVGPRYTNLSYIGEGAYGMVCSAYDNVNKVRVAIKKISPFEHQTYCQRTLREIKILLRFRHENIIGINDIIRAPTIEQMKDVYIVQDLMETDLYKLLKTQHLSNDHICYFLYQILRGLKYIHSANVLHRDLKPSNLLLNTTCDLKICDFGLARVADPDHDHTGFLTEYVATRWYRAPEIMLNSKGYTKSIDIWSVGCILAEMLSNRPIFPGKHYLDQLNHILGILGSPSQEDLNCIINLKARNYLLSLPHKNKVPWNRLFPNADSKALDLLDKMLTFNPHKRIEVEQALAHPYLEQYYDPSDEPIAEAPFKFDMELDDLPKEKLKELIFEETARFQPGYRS
Chain of Serine/threonine-protein kinase 3 (Q13188 whole entry, the tested form may be a part): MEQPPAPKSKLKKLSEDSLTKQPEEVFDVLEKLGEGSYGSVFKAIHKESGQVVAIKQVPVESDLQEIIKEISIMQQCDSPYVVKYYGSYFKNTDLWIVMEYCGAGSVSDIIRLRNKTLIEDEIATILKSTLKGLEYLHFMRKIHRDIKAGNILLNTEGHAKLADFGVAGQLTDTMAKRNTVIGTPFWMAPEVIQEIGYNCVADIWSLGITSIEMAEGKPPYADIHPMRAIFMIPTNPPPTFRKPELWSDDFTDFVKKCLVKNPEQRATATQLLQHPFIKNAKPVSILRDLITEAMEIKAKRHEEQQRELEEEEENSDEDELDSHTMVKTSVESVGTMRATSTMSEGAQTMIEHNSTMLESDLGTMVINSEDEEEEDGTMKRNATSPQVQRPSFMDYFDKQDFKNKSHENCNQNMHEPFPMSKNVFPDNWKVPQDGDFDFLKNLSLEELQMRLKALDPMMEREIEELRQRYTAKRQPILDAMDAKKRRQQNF

In the case of `CN(C)CCOc1ccc(-c2nc(-c3ccncc3)c(-c3ccc4c(c3)CC/C4=N\O)[nH]2)cc1`, the % of control in assay [1] was 100%; in assay [2], 90%; in assay [3] it was 78%; in assay [4], 81%.
`N#Cc1cccc(-c2c[nH]c3ncnc(N4CCOCC4)c23)c1`: in assay [5], the concentration for half-maximal inhibition (IC50) worked out at 76 nM.
`Cc1cc(CN)cc(C)c1-c1ncn(C)c1-c1cncn1C`: in assay [6], the dTagg came to 0 K.
For `C=CC(=O)Nc1cc(-n2c(=O)ccc3cnc4ccc(-c5ccc(NS(C)(=O)=O)cc5)cc4c32)ccc1C`, the % of control was 100% in assay [7] (at 1 µM) and 85% in assay [7] (at 10 µM).
Regarding `Cc1ccc(-c2ccc3c(ccc4sc5c(c43)NC[C@@H](C)NC5=O)n2)cn1`, the % of inhibition in assay [8] was found to be 3%.
